Measured values: patent US20190152957A1, “PYRIDIN-3-YL ACETIC ACID DERIVATIVES AS INHIBITORS OF HUMAN IMMUNODEFICIENCY VIRUS REPLICATION” (ViiV HEALTHCARE UK (NO.5) LIMITED, priority 2016, published 2019)

System: recombinant NL-RLuc virus (HIV NL4-3 with Renilla Luciferase gene) in MT-2 cells
Assay: Inhibition of HIV replication (NL-RLuc virus, luciferase readout in MT-2 cells)
Assay type: cell-based
Conditions: MT2, 120 h, read-out: Activity
Excerpt: Inhibition of HIV Replication:
A recombinant NL-RLuc proviral clone was constructed in which a section of the nef gene from NL4-3 was replaced with the Renilla Luciferase gene. This virus is fully infectious and can undergo multiple cycles of replication in cell culture. In addition, the luciferous reporter provides a simple and easy method for quantitating the extent of virus growth and consequently, the antiviral activity of test compounds. The plasmid pNLRLuc contains the proviral NL-Rluc DNA cloned into pUC18 at the PvuII site. The NL-RLuc virus was prepared by transfection of 293T cells with the plasmid pNLRLuc. Transfections were performed using the LipofectAMINE PLUS kit from Invitrogen (Carlsbad, Calif.) according to the manufacturer and the virus generated was titered in MT-2 cells. For susceptibility analyses, the titrated virus was used to infect MT-2 cells in the presence of compound, and after 5 days of incubation, cells were processed and quantitated for virus growth by the amount of expressed luciferase. Assay media was RPMI 1640 supplemented with 10% heat inactivated fetal bovine serum (FBS), 100 units/ml penicillin G/100 units/ml streptomycin, 10 mM HEPES buffer pH 7.55 and 2 mM L-glutamine. The results from at least 2 experiments were used to calculate the EC50 values. Luciferase was quantitated using the Dual Luciferase kit from Promega (Madison, Wis.). Susceptibility of viruses to compounds was determined by incubation in the presence of serial dilutions of the compound. The 50% effective concentration (EC50) was calculated by using the exponential form of the median effect equation where (Fa)=1/[1+(ED50/drug conc.)^m](Johnson V A, Byington R T. Infectivity Assay. In Techniques in HIV Research. ed. Aldovini A, Walker BD. 71-76. New York: Stockton Press. 1990). Activity equal to A refers to a compound having an EC50≤100 nM, while B and C denote compounds having an EC50 between 100 nM and 1 uM (B) or >1 uM (C).

Q: With `Cc1nc(CN2CCc3cc(-c4c(C)nc(C)c([C@H](OC(C)(C)C)C(=O)O)c4N4CCC(C)(C)CC4)ccc3C2)c(C)o1` [Compound 18, (S)-2-(tert-butoxy)-2-(5-(2-((2,5-dimethyloxazol-4-yl)methyl)-1,2,3,4-tetrahydroisoquinolin-6-yl)-4-(4,4-dimethylpiperidin-1-yl)-2,6-dimethylpyridin-3-yl)acetic acid] as the compound, how does the EC50 read?
A: < 0.1 µM

Q: `Cc1nc(C)c([C@H](OC(C)(C)C)C(=O)O)c(N2CCC(C)(C)CC2)c1-c1ccc2c(c1)CCN(Cc1cnn(-c3ccc(F)cc3)c1)C2` [Compound 19, (S)-2-(tert-butoxy)-2-(4-(4,4-dimethylpiperidin-1-yl)-5-(2-((1-(4-fluorophenyl)-1H-pyrazol-4-yl)methyl)-1,2,3,4-tetrahydroisoquinolin-6-yl)-2,6-dimethylpyridin-3-yl)acetic acid] was tested. Which EC50 did it give?
A: < 0.1 µM

Q: With `Cc1nc(C)c([C@H](OC(C)(C)C)C(=O)O)c(N2CCC(C)(C)CC2)c1-c1ccc2c(c1)CCN(Cc1cnc(-c3ccccc3)[nH]1)C2` [Compound 20, (S)-2-(tert-butoxy)-2-(4-(4,4-dimethylpiperidin-1-yl)-2,6-dimethyl-5-(2-((2-phenyl-1H-imidazol-5-yl)methyl)-1,2,3,4-tetrahydroisoquinolin-6-yl)pyridin-3-yl)acetic acid] as the compound, how does the EC50 read?
A: < 0.1 µM

Q: With `CCc1ncc(CN2CCc3cc(-c4c(C)nc(C)c([C@H](OC(C)(C)C)C(=O)O)c4N4CCC(C)(C)CC4)ccc3C2)[nH]1` [Compound 21, (S)-2-(tert-butoxy)-2-(4-(4,4-dimethylpiperidin-1-yl)-5-(2-((2-ethyl-1H-imidazol-5-yl)methyl)-1,2,3,4-tetrahydroisoquinolin-6-yl)-2,6-dimethylpyridin-3-yl)acetic acid] as the compound, how does the EC50 read?
A: > 1 µM

Q: `CCn1cc(CN2CCc3cc(-c4c(C)nc(C)c([C@H](OC(C)(C)C)C(=O)O)c4N4CCC(C)(C)CC4)ccc3C2)c(C)n1` [Compound 22, (S)-2-(tert-butoxy)-2-(4-(4,4-dimethylpiperidin-1-yl)-5-(2-((1-ethyl-3-methyl-1H-pyrazol-4-yl)methyl)-1,2,3,4-tetrahydroisoquinolin-6-yl)-2,6-dimethylpyridin-3-yl)acetic acid] was tested. Which EC50 did it give?
A: < 0.1 µM

Q: With `Cc1noc(C)c1CN1CCc2cc(-c3c(C)nc(C)c([C@H](OC(C)(C)C)C(=O)O)c3N3CCC(C)(C)CC3)ccc2C1` [Compound 23, (S)-2-(tert-butoxy)-2-(5-(2-((3,5-dimethylisoxazol-4-yl)methyl)-1,2,3,4-tetrahydroisoquinolin-6-yl)-4-(4,4-dimethylpiperidin-1-yl)-2,6-dimethylpyridin-3-yl)acetic acid] as the compound, how does the EC50 read?
A: < 0.1 µM

Q: With `Cc1nc(C)c([C@H](OC(C)(C)C)C(=O)O)c(N2CCC(C)(C)CC2)c1-c1ccc2c(c1)CCN(Cc1nn(C)cc1Cl)C2` [Compound 24, (S)-2-(tert-butoxy)-2-(5-(2-((4-chloro-1-methyl-1H-pyrazol-3-yl)methyl)-1,2,3,4-tetrahydroisoquinolin-6-yl)-4-(4,4-dimethylpiperidin-1-yl)-2,6-dimethylpyridin-3-yl)acetic acid] as the compound, how does the EC50 read?
A: < 0.1 µM

Q: How did the EC50 turn out when `Cc1nc(C)c([C@H](OC(C)(C)C)C(=O)O)c(N2CCC(C)(C)CC2)c1-c1ccc2c(c1)CCN(Cc1cc(-c3ccccc3)on1)C2` [Compound 25, (S)-2-(tert-butoxy)-2-(4-(4,4-dimethylpiperidin-1-yl)-2,6-dimethyl-5-(2-((5-phenylisoxazol-3-yl)methyl)-1,2,3,4-tetrahydroisoquinolin-6-yl)pyridin-3-yl)acetic acid] was run?
A: < 0.1 µM

Q: How did the EC50 turn out when `Cc1nc(C)c([C@H](OC(C)(C)C)C(=O)O)c(N2CCC(C)(C)CC2)c1-c1ccc2c(c1)CCN(Cc1ccn[nH]1)C2` [Compound 26, (S)-2-(5-(2-((1H-pyrazol-5-yl)methyl)-1,2,3,4-tetrahydroisoquinolin-6-yl)-4-(4,4-dimethylpiperidin-1-yl)-2,6-dimethylpyridin-3-yl)-2-(tert-butoxy)acetic acid] was run?
A: < 0.1 µM

Q: `Cc1nc(C)c([C@H](OC(C)(C)C)C(=O)O)c(N2CCC(C)(C)CC2)c1-c1ccc2c(c1)CCN(Cc1c[nH]nn1)C2` [Compound 27, (S)-2-(5-(2-((1H-1,2,3-triazol-4-yl)methyl)-1,2,3,4-tetrahydroisoquinolin-6-yl)-4-(4,4-dimethylpiperidin-1-yl)-2,6-dimethylpyridin-3-yl)-2-(tert-butoxy)acetic acid] was tested. Which EC50 did it give?
A: 0.1 to 1 µM

Q: Which EC50 does the source give for `Cc1nc(C)c([C@H](OC(C)(C)C)C(=O)O)c(N2CCC(C)(C)CC2)c1-c1ccc2c(c1)CCN(Cc1ccnc(Cl)c1F)C2` [Compound 28, (S)-2-(tert-butoxy)-2-(5-(2-((2-chloro-3-fluoropyridin-4-yl)methyl)-1,2,3,4-tetrahydroisoquinolin-6-yl)-4-(4,4-dimethylpiperidin-1-yl)-2,6-dimethylpyridin-3-yl)acetic acid] here?
A: < 0.1 µM

Q: For `CCOc1ncccc1CN1CCc2cc(-c3c(C)nc(C)c([C@H](OC(C)(C)C)C(=O)O)c3N3CCC(C)(C)CC3)ccc2C1` [Compound 29, (S)-2-(tert-butoxy)-2-(4-(4,4-dimethylpiperidin-1-yl)-5-(2-((2-ethoxypyridin-3-yl)methyl)-1,2,3,4-tetrahydroisoquinolin-6-yl)-2,6-dimethylpyridin-3-yl)acetic acid], which EC50 is on record?
A: < 0.1 µM

Q: For `COc1cccc(CN2CCc3cc(-c4c(C)nc(C)c([C@H](OC(C)(C)C)C(=O)O)c4N4CCC(C)(C)CC4)ccc3C2)n1` [Compound 30, (S)-2-(tert-butoxy)-2-(4-(4,4-dimethylpiperidin-1-yl)-5-(2-((6-methoxypyridin-2-yl)methyl)-1,2,3,4-tetrahydroisoquinolin-6-yl)-2,6-dimethylpyridin-3-yl)acetic acid], which EC50 is on record?
A: < 0.1 µM

Q: Which EC50 does the source give for `COc1cc(CN2CCc3cc(-c4c(C)nc(C)c([C@H](OC(C)(C)C)C(=O)O)c4N4CCC(C)(C)CC4)ccc3C2)ccn1` [Compound 31, (S)-2-(tert-butoxy)-2-(4-(4,4-dimethylpiperidin-1-yl)-5-(2-((2-methoxypyridin-4-yl)methyl)-1,2,3,4-tetrahydroisoquinolin-6-yl)-2,6-dimethylpyridin-3-yl)acetic acid] here?
A: < 0.1 µM

Q: With `Cc1nc(C)c([C@H](OC(C)(C)C)C(=O)O)c(N2CCC(C)(C)CC2)c1-c1ccc2c(c1)CCN(Cc1ccc(Cl)nc1Cl)C2` [Compound 32, (S)-2-(tert-butoxy)-2-(5-(2-((2,6-dichloropyridin-3-yl)methyl)-1,2,3,4-tetrahydroisoquinolin-6-yl)-4-(4,4-dimethylpiperidin-1-yl)-2,6-dimethylpyridin-3-yl)acetic acid] as the compound, how does the EC50 read?
A: < 0.1 µM

Q: How did the EC50 turn out when `COc1ncc(CN2CCc3cc(-c4c(C)nc(C)c([C@H](OC(C)(C)C)C(=O)O)c4N4CCC(C)(C)CC4)ccc3C2)cn1` [Compound 33, (S)-2-(tert-butoxy)-2-(4-(4,4-dimethylpiperidin-1-yl)-5-(2-((2-methoxypyrimidin-5-yl)methyl)-1,2,3,4-tetrahydroisoquinolin-6-yl)-2,6-dimethylpyridin-3-yl)acetic acid] was run?
A: < 0.1 µM

Q: Which EC50 does the source give for `Cc1nc(C)c([C@H](OC(C)(C)C)C(=O)O)c(N2CCC(C)(C)CC2)c1-c1ccc2c(c1)CCN(Cc1ccc(C(F)(F)F)nc1)C2` [Compound 34, (S)-2-(tert-butoxy)-2-(4-(4,4-dimethylpiperidin-1-yl)-2,6-dimethyl-5-(2-((6-(trifluoromethyl)pyridin-3-yl)methyl)-1,2,3,4-tetrahydroisoquinolin-6-yl)pyridin-3-yl)acetic acid] here?
A: < 0.1 µM

Q: How did the EC50 turn out when `COc1ncccc1CN1CCc2cc(-c3c(C)nc(C)c([C@H](OC(C)(C)C)C(=O)O)c3N3CCC(C)(C)CC3)ccc2C1` [Compound 35, (S)-2-(tert-butoxy)-2-(4-(4,4-dimethylpiperidin-1-yl)-5-(2-((2-methoxypyridin-3-yl)methyl)-1,2,3,4-tetrahydroisoquinolin-6-yl)-2,6-dimethylpyridin-3-yl)acetic acid] was run?
A: < 0.1 µM

Q: Which EC50 does the source give for `Cc1nc(C)c([C@H](OC(C)(C)C)C(=O)O)c(N2CCC(C)(C)CC2)c1-c1ccc2c(c1)CCN(Cc1cccnn1)C2` [Compound 36, (S)-2-(tert-butoxy)-2-(4-(4,4-dimethylpiperidin-1-yl)-2,6-dimethyl-5-(2-(pyridazin-3-ylmethyl)-1,2,3,4-tetrahydroisoquinolin-6-yl)pyridin-3-yl)acetic acid] here?
A: < 0.1 µM

Q: For `Cc1nc(C)c([C@H](OC(C)(C)C)C(=O)O)c(N2CCC(C)(C)CC2)c1-c1ccc2c(c1)CCN(Cc1ncco1)C2` [Compound 37, (S)-2-(tert-butoxy)-2-(4-(4,4-dimethylpiperidin-1-yl)-2,6-dimethyl-5-(2-(oxazol-2-ylmethyl)-1,2,3,4-tetrahydroisoquinolin-6-yl)pyridin-3-yl)acetic acid], which EC50 is on record?
A: < 0.1 µM

Same assay, conditions: MT2, 120 h, read-out: EC50 μM

Q: With `CCc1ncc(CN2CCc3cc(-c4c(C)nc(C)c([C@H](OC(C)(C)C)C(=O)O)c4N4CCC(C)(C)CC4)ccc3C2)[nH]1` [Compound 21, (S)-2-(tert-butoxy)-2-(4-(4,4-dimethylpiperidin-1-yl)-5-(2-((2-ethyl-1H-imidazol-5-yl)methyl)-1,2,3,4-tetrahydroisoquinolin-6-yl)-2,6-dimethylpyridin-3-yl)acetic acid] as the compound, how does the EC50 read?
A: 1.54 µM

Q: Which EC50 does the source give for `Cc1nc(C)c([C@H](OC(C)(C)C)C(=O)O)c(N2CCC(C)(C)CC2)c1-c1ccc2c(c1)CCN(Cc1cc(-c3ccccc3)on1)C2` [Compound 25, (S)-2-(tert-butoxy)-2-(4-(4,4-dimethylpiperidin-1-yl)-2,6-dimethyl-5-(2-((5-phenylisoxazol-3-yl)methyl)-1,2,3,4-tetrahydroisoquinolin-6-yl)pyridin-3-yl)acetic acid] here?
A: 0.012 µM

Q: For `COc1ncc(CN2CCc3cc(-c4c(C)nc(C)c([C@H](OC(C)(C)C)C(=O)O)c4N4CCC(C)(C)CC4)ccc3C2)cn1` [Compound 33, (S)-2-(tert-butoxy)-2-(4-(4,4-dimethylpiperidin-1-yl)-5-(2-((2-methoxypyrimidin-5-yl)methyl)-1,2,3,4-tetrahydroisoquinolin-6-yl)-2,6-dimethylpyridin-3-yl)acetic acid], which EC50 is on record?
A: 0.008 µM
